Test results as given in publication PMC11374673, “Discovery of isoquinoline sulfonamides as allosteric gyrase inhibitors with activity against fluoroquinolone-resistant bacteria” (Nature Chemistry, 2024).
In brackets after ≈: the same amount, converted by molar mass. Several values for one entry are separate records, joined by “and”; a condition that tells them apart may be missing. Equal entries are not always repeated. Where two headings read alike, the source gives them in different places.

Key:
E. coli W3110 = experiment: MIC by broth microdilution; format: cell-based, Escherichia coli; conditions: for MIC: broth microdilution, read-out: MIC E. coli W3110
Protocol: (§1) MIC was determined by broth microdilution. Single-colony cultures were grown to exponential phase (OD600 of 0.5) aerobically at 37 °C. In case of strains from the Keio collection, 50 µg ml^−1 kanamycin was supplemented to the media to ascertain a homogeneous population. The bacterial suspensions were diluted 100-fold in CAMHB and 50 µl was added to a twofold serial dilution series of test compounds (50 µl per well) in polypropylene 96-well microtitre plates to reach a volume of 100 µl. The plates were sealed with breathable membranes and incubated overnight at 37 °C with constant shaking (600 r.p.m.).

HEK293T = experiment: Cytotoxicity assay (MTT); format: cell-based, human; conditions: for MTT data (raw readout) / MTT data (raw reading): HEK293T; for IC50: 24 h, MTT
Protocol: (§2) HepG2 (ATCC HB-8065) and HEK293T (ATCC CRL-3216) cell lines were cultured at 37 °C and 7% CO2 in Dulbecco’s modified Eagle medium (Sigma-Aldrich, D6546) with GlutaMax, penicillin (100 µg ml^−1), streptomycin (100 µg ml^−1) and 10% fetal calf serum. Cells were passaged twice a week by first detaching using 0.05% trypsin in phosphate-buffered saline (PBS) and then diluting to appropriate confluence. Compound cytotoxicity was evaluated using the standard (3-(4,5-dimethylthiazol-2-yl)-2,5-diphenyltetrazolium bromide (MTT) assay protocol (MTT assay protocol for cell viability and proliferation, Merck) with slight changes. HepG2 and HEK293T cells were seeded at a density of 1.5 × 10^4 cells per well in a clear 96-well tissue culture treated plate in a final volume of 100 µl in Dulbecco’s modified Eagle medium, supplemented with fetal bovine serum (1%), GlutaMax and penicillin/streptomycin. Cells were incubated for 24 h at 37 °C, 7% CO2 to allow cells to attach to the plates. […] Incubation was done for 24 h at 37 °C, 7% CO2. After the incubation, MTT was added to each well at a final concentration of 0.40 mg ml^−1. The plates were then incubated for 2 h at 37 °C, 7% CO2. Medium was carefully removed via suction, and purple formazan crystals were resuspended in 100 µl DMSO. Absorbance was read at 570 nm using a Clariostar plate reader with MARS (V4.20). The data were then analysed with GraphPad Prism software. IC50 values were calculated using non-linear fitted curve with variable slope settings, with values adjusted for background (plotted absorbance (ABS)sample = (ABSsample – ABSbackground) / (ABSvehicle – ABSbackground)). Technical triplicates for each condition were used, along with biological duplicates.

HepG2 = experiment: Cytotoxicity assay (MTT); format: cell-based, human; conditions: for IC50: Homo sapiens, HepG2, 24 h, MTT, 24 h
Protocol: as §2

K. pneumoniae ATCC 29665 = experiment: MIC by broth microdilution; format: cell-based, Klebsiella pneumoniae; conditions: Klebsiella pneumoniae, ATCC29665, broth microdilution; read-out: MIC K. pneumoniae ATCC 29665
Protocol: as §1

O=S(=O)(NCCNCc1ccc(-c2ccc(F)cc2)cc1)c1cccc2cnccc12 [Compound 59]
MIC (E. coli W3110; Escherichia coli, W3110, WT): 3.1 µM (≈ 1.35 µg/mL)
MIC (E. coli W3110; WT): 3.125 µM (≈ 1.36 µg/mL)
antimicrobial activity (E. coli W3110; relative to parent compound): twofold increase in potency
MTT data (raw readout) (HEK293T; 0.023 uM, experiment n = 1, technical triplicates): 1.333 and 1.279 and 1.355
MTT data (raw readout) (HEK293T; 0.023 uM, experiment n = 2, technical triplicates): 1.390 and 1.481 and 1.407
MTT data (raw readout) (HEK293T; 0.068 uM, experiment n = 1, technical triplicates): 1.383 and 1.359
MTT data (raw readout) (HEK293T; 0.068 uM, experiment n = 2, technical triplicates): 1.383 and 1.292 and 1.538
MTT data (raw readout) (HEK293T; 0.21 uM, experiment n = 1, technical triplicates): 1.318 and 1.351 and 1.256
MTT data (raw readout) (HEK293T; 0.21 uM, experiment n = 2, technical triplicates): 1.291 and 1.248 and 1.339
MTT data (raw readout) (HEK293T; 0.62 uM, experiment n = 1, technical triplicates): 1.028 and 1.043 and 1.203
MTT data (raw readout) (HEK293T; 0.62 uM, experiment n = 2, technical triplicates): 1.142 and 1.303 and 1.183
MTT data (raw readout) (HEK293T; 1.85 uM, experiment n = 1, technical triplicates): 0.845 and 0.882 and 0.691
MTT data (raw readout) (HEK293T; 1.85 uM, experiment n = 2, technical triplicates): 0.871 and 0.885 and 0.773
MTT data (raw readout) (HEK293T; 5.6 uM, experiment n = 1, technical triplicates): 0.197 and 0.226 and 0.189
MTT data (raw readout) (HEK293T; 5.6 uM, experiment n = 2, technical triplicates): 0.227 and 0.205 and 0.278
MTT data (raw readout) (HEK293T; 16.7 uM, experiment n = 1, technical triplicates): 0.068 and 0.048 and 0.059
MTT data (raw readout) (HEK293T; 50 uM, experiment n = 1, technical triplicates): 0.036 and 0.035 and 0.032
MTT data (raw readout) (HEK293T; 50 uM, experiment n = 2, technical triplicates): 0.032 and 0.034 and 0.028
IC50 (HEK293T; Homo sapiens, HEK-293T): 1700 nM
IC50 (HEK293T): 2600 nM
MTT data (raw readout) (HepG2; HepG2, 0.023 uM, experiment n = 1, technical triplicates): 1.000 and 0.992 and 0.989
MTT data (raw readout) (HepG2; HepG2, 0.023 uM, experiment n = 2, technical triplicates): 0.854 and 0.789 and 0.774
MTT data (raw readout) (HepG2; HepG2, 0.068 uM, experiment n = 1, technical triplicates): 0.940 and 0.990 and 0.945
MTT data (raw readout) (HepG2; HepG2, 0.068 uM, experiment n = 2, technical triplicates): 0.876 and 0.808 and 0.777
MTT data (raw readout) (HepG2; HepG2, 0.21 uM, experiment n = 1, technical triplicates): 0.977 and 1.029 and 0.973
MTT data (raw readout) (HepG2; HepG2, 0.21 uM, experiment n = 2, technical triplicates): 0.822 and 0.816 and 0.771
MTT data (raw readout) (HepG2; HepG2, 0.62 uM, experiment n = 1, technical triplicates): 0.952 and 1.030 and 0.967
MTT data (raw readout) (HepG2; HepG2, 0.62 uM, experiment n = 2, technical triplicates): 0.836 and 0.820 and 0.813
MTT data (raw readout) (HepG2; HepG2, 1.85 uM, experiment n = 1, technical triplicates): 0.913 and 0.914 and 0.948
MTT data (raw readout) (HepG2; HepG2, 1.85 uM, experiment n = 2, technical triplicates): 0.795 and 0.749 and 0.743
IC50 (HepG2): 1700 nM
MIC (K. pneumoniae ATCC 29665): 6.25 µM (≈ 2.72 µg/mL)

O=S(=O)(NCCNCc1ccc(-c2ccc(Cl)cc2)cc1)c1cccc2cnccc12 [Compound 61]
MIC (E. coli W3110; Escherichia coli, W3110, WT): 6.25 µM (≈ 2.82 µg/mL)
MTT data (raw reading) (HEK293T; 0.023 uM, n = 1): 0.895 and 1.117 and 0.888
MTT data (raw reading) (HEK293T; 0.023 uM, n = 2): 0.606 and 0.823 and 0.767
MTT data (raw reading) (HEK293T; 0.068 uM, n = 1): 1.228 and 1.100 and 1.289
MTT data (raw reading) (HEK293T; 0.068 uM, n = 2): 0.594 and 0.790 and 0.797
MTT data (raw reading) (HEK293T; 0.21 uM, n = 1): 1.193 and 1.192 and 1.600
MTT data (raw reading) (HEK293T; 0.21 uM, n = 2): 0.478 and 0.738 and 0.728
MTT data (raw reading) (HEK293T; 0.62 uM, n = 1): 0.992 and 0.937 and 0.903
MTT data (raw reading) (HEK293T; 0.62 uM, n = 2): 0.540 and 0.686 and 0.703
MTT data (raw reading) (HEK293T; 1.85 uM, n = 1): 0.640 and 0.552 and 0.507
MTT data (raw reading) (HEK293T; 1.85 uM, n = 2): 0.345 and 0.480 and 0.465
MTT data (raw reading) (HEK293T; 5.6 uM, n = 1): 0.114 and 0.126 and 0.094
MTT data (raw reading) (HEK293T; 5.6 uM, n = 2): 0.048 and 0.047 and 0.040
MTT data (raw reading) (HEK293T; 16.7 uM, n = 1): 0.021 and 0.012 and 0.016
IC50 (HEK293T; Homo sapiens, HEK-293T): 1000 nM
MTT data (raw reading) (HepG2; HepG2, 0.023 uM, n = 1): 0.473 and 0.481 and 0.514
MTT data (raw reading) (HepG2; HepG2, 0.023 uM, n = 2): 0.517 and 0.561 and 0.567
MTT data (raw reading) (HepG2; HepG2, 0.068 uM, n = 1): 0.534 and 0.501 and 0.482
MTT data (raw reading) (HepG2; HepG2, 0.068 uM, n = 2): 0.479 and 0.534 and 0.570
MTT data (raw reading) (HepG2; HepG2, 0.21 uM, n = 1): 0.462 and 0.484 and 0.480
MTT data (raw reading) (HepG2; HepG2, 0.21 uM, n = 2): 0.576 and 0.558 and 0.573
MTT data (raw reading) (HepG2; HepG2, 0.62 uM, n = 1): 0.454 and 0.449
MTT data (raw reading) (HepG2; HepG2, 0.62 uM, n = 2): 0.464 and 0.502 and 0.467
MTT data (raw reading) (HepG2; HepG2, 1.85 uM, n = 1): 0.401 and 0.414 and 0.404
MTT data (raw reading) (HepG2; HepG2, 1.85 uM, n = 2): 0.454 and 0.456 and 0.471
MTT data (raw reading) (HepG2; HepG2, 5.6 uM, n = 1): 0.017 and 0.021 and 0.022
MTT data (raw reading) (HepG2; HepG2, 5.6 uM, n = 2): 0.042 and 0.022 and 0.021
MTT data (raw reading) (HepG2; HepG2, 16.7 uM, n = 1): 0.009 and 0.013
IC50 (HepG2): 2800 nM
MIC (K. pneumoniae ATCC 29665): > 50 µM
